# Where a SMILES comes first, the peptide text is derived from it. [ ]: non-standard residue; d: D form. The star is where a group is joined. dPhe(4-NHCONH2) = NC(=O)Nc1ccc(C[C@@H](N)C(=O)O)cc1; Dihydroorotyl(S) = O=C1C[C@@H](C(=O)*)NC(=O)N1; dPhe(4-Cl) = N[C@H](Cc1ccc(Cl)cc1)C(=O)O; Phe(4-NH2) = Nc1ccc(C[C@H](N)C(=O)O)cc1; d2Nal = N[C@H](Cc1ccc2ccccc2c1)C(=O)O; Lys(iPr) = CC(C)NCCCC[C@H](N)C(=O)O; d3Pal = N[C@H](Cc1cccnc1)C(=O)O
# Key:
# Assay type in all cases: in vivo, human
# serum testosterone = test: Example 9: serum testosterone, castration and recovery, neoadjuvant/adjuvant ADT to EBRT, versus degarelix; settings: for Percent recovery (95% CI) to baseline testosterone or >280 ng/dL: 12 weeks from last dose
# Protocol: (§1) Eligible male patients were aged ≥18 years with a histologically confirmed diagnosis of localized, intermediate-risk prostate cancer, for whom 6-month neoadjuvant and adjuvant androgen deprivation therapy (ADT) to external beam radiation therapy (EBRT) was indicated. The criteria for establishing intermediate-risk prostate cancer included the presence of one of the following, without any high-risk feature: T2b-T2c disease, Gleason score 7, or prostate-specific antigen (PSA) 10-20 ng/mL. […] Based on investigator discretion and clinical assessment of the patient's overall medical and disease status, participation was allowed for older patients with high-risk disease (e.g., based on Gleason score or tumor status) who were deemed likely to benefit from 6 months of neoadjuvant/adjuvant ADT.
# Both treatment arms received treatment for 24 weeks. […] EBRT began no later than day 1, week 17. […]
# (§2) Samples for testosterone, luteinizing hormone (LH), FSH, and PSA concentrations were taken at screening, on day 1 of the first week (additionally days 2 and 4 for testosterone and LH), and on day 1 of weeks 2, 3, 5, 9, 13, 17, 21, 25, 29, 33, and 37 thereafter.
# [1] = tested on: patients with intermediate-risk prostate cancer; test: Example 9: quality of life (EORTC QLQ-C30, QLQ-PR25, AMS)
# Protocol: (§3) Eligible male patients were aged ≥18 years with a histologically confirmed diagnosis of localized, intermediate-risk prostate cancer, for whom 6-month neoadjuvant and adjuvant androgen deprivation therapy (ADT) to external beam radiation therapy (EBRT) was indicated. The criteria for establishing intermediate-risk prostate cancer included the presence of one of the following, without any high-risk feature: T2b-T2c disease, Gleason score 7, or prostate-specific antigen (PSA) 10-20 ng/mL. Additional inclusion criteria included: EBRT scheduled to begin ≥12 weeks after baseline visit; screening serum testosterone >150 ng/dL (5.2 nmol/L); screening PSA concentration >2 ng/ml; body mass index ≥18.0 at screening or baseline (i.e., the subject's BMI prior to treatment commencing); Eastern Cooperative Oncology Group performance status of 0 or 1 at screening. Based on investigator discretion and clinical assessment of the patient's overall medical and disease status, participation was allowed for older patients with high-risk disease (e.g., based on Gleason score or tumor status) who were deemed likely to benefit from 6 months of neoadjuvant/adjuvant ADT. Most patients had intermediate-risk disease. However, a few patients, based on Gleason score or tumor, node, and metastasis staging system, were technically of higher than intermediate risk.
# (§4) Both treatment arms received treatment for 24 weeks. Patients remained on treatment for at least 12 weeks before the start of external beam radiation treatment (EBRT), which was initiated for most patients between Week 13, Day 1 and Week 15, Day 1. EBRT began no later than day 1, week 17.
# Quality of Life (QoL) was assessed via the core 30-item European Organisation for Research and Treatment of Cancer quality of life questionnaire (EORTC QLQ-C30), the 25-item prostate cancer module EORTC questionnaire (EORTC QLQ-PR25), and the aging male survey (AMS). QoL assessments were completed at screening, on day 1 of weeks 1, 5, 13, and 25, and at weeks 29, 33, and 37.
# FSH = test: Example 9: FSH
# Protocol: as §3, §4
# (§5) Patients were evaluated every 4 weeks during the treatment period (including day 1, week 25), at end of treatment (defined as week 29), during follow-up (week 33), and at end of study (EOS).
# as §2, with “thereafter. […] Suppression of FSH was less profound than that of LH, but consistent with the literature, and was greater than that observed with GnRH agonists.” for “thereafter.”
# LH = test: Example 9: LH
# Protocol: as §1
# Both treatment arms received treatment for 24 weeks. […] EBRT began no later than day 1, week 17.
# as §5, §2
# PSA = test: Example 9: PSA
# Protocol: as §3, §4, §5
# as §2, with “thereafter. […] Suppression of FSH was less profound than that of LH, but consistent with the literature, and was greater than that observed with GnRH agonists.” for “thereafter.”
# [2] = subjects with at least 24 weeks of treatment
# [3] = from baseline (day 1) to week 25
compound,measurement,setting,value
"CC(=O)N[C@H](Cc1ccc2ccccc2c1)C(=O)N[C@H](Cc1ccc(Cl)cc1)C(=O)N[C@H](Cc1cccnc1)C(=O)N[C@@H](CO)C(=O)N[C@@H](Cc1ccc(NC(=O)[C@@H]2CC(=O)NC(=O)N2)cc1)C(=O)N[C@H](Cc1ccc(NC(N)=O)cc1)C(=O)N[C@@H](CC(C)C)C(=O)N[C@@H](CCCCNC(C)C)C(=O)N1CCC[C@H]1C(=O)N[C@H](C)C(N)=O [Degarelix, degarelix, reference compound] (Ac-[d2Nal][dPhe(4-Cl)][d3Pal]S[Phe(4-NH2)](Dihydroorotyl(S))[dPhe(4-NHCONH2)]L[Lys(iPr)]P[dA]-NH2)","Kaplan-Meier estimate (95% CI) of testosterone recovery, probability of event",serum testosterone; 4 weeks from last dose,0.00 (0.00.0.00)
same,"Kaplan-Meier estimate (95% CI) of testosterone recovery, probability of event",serum testosterone; 8 weeks from last dose,0.00 (0.00.0.00)
same,patients whose serum testosterone met the definition of recovery,serum testosterone; 12-week follow-up,6 of 38
same,Percent recovery (95% CI) to baseline testosterone or >280 ng/dL,serum testosterone,5.3 (0.6.17.7) %
same,Percent recovery (95% CI) to baseline testosterone or >280 ng/dL,serum testosterone; listed as degarelix,5.3%
same,Median testosterone,serum testosterone; Baseline,403.8 ng/dL
same,Testosterone Median,serum testosterone; Baseline,14.020 nmol/L
same,Testosterone Mean (Std Dev),"serum testosterone; Baseline, Compound 1 120 mg QD or degarelix 80 mg Q4W",14.567 (5.5680) nmol/L
same,Testosterone Mean (Std Dev),serum testosterone; EOS,3.038 (4.0224) nmol/L
same,Testosterone Median,serum testosterone; EOS,1.040 nmol/L
same,Testosterone Mean (Std Dev),serum testosterone; EOT,0.576 (1.2218) nmol/L
same,Testosterone Median,serum testosterone; EOT,0.335 nmol/L
same,Testosterone Mean (Std Dev),serum testosterone; Follow-Up,1.206 (1.9330) nmol/L
same,Testosterone Median,serum testosterone; Follow-Up,0.560 nmol/L
same,Median testosterone,serum testosterone; Week 24,8.9 ng/dL
same,Testosterone Mean (Std Dev),"serum testosterone; Week 25, Day 1",0.582 (1.5107) nmol/L
same,Testosterone Median,"serum testosterone; Week 25, Day 1",0.310 nmol/L
same,Median testosterone,serum testosterone; Week 28/EOT visit,9.6 ng/dL
same,Median testosterone,serum testosterone; Week 32/follow-up,16.1 ng/dL
same,Median testosterone,serum testosterone; Week 36/EOS,30.0 ng/dL
same,patients recovered to baseline testosterone or greater than 280 ng/dL,serum testosterone; end of 12-week follow-up,6%
same,median serum testosterone,serum testosterone; end of study visit,< 50 ng/dL
same,Median time to medical castration (≤50 ng/dL),serum testosterone; in vivo,3 days
same,Median time to profound castration (≤20 ng/dL),serum testosterone; in vivo,12 days
same,medical castration rate (less than 50 ng/dL),"serum testosterone; over 24 weeks, overall",89%
same,profound castration rate (less than 20 ng/dL),"serum testosterone; over 24 weeks, overall",68%
same,Testosterone recovery (baseline or >280 ng/dL): number with events,serum testosterone; overall safety population,6 (16) n (%)
same,Testosterone recovery: number censored,serum testosterone; overall safety population,32 (84) n (%)
same,"Time to testosterone recovery, 25th percentile (95% CI)",serum testosterone; overall safety population,100 (87.106) days
same,"Time to testosterone recovery, 75th percentile (95% CI)",serum testosterone; overall safety population,106 (100.106) days
same,"Time to testosterone recovery, Median (95% CI)",serum testosterone; overall safety population,100 (100.106) days
same,"Time to testosterone recovery, Median (95% CI)","serum testosterone; overall safety population, listed as degarelix","100 (100, 106) days"
same,medical castration rate (less than 50 ng/dL),serum testosterone; [2],86%
same,profound castration rate (less than 20 ng/dL),serum testosterone; [2],71%
same,"Global health/QoL, Mean (SD) change",[1]; [3],−7.5 (13.7)
same,"Hormonal treatment-related symptoms, Mean (SD) change",[1]; [3],12.9 (10.4)
same,"Sexual activity, Mean (SD) change",[1]; [3],−11.8 (36.3)
same,"Global health/QoL, Mean (SD) change",[1]; from baseline to week 36 (EOS),−6.8 (16.0)
same,"Hormonal treatment-related symptoms, Mean (SD) change",[1]; from baseline to week 36 (EOS),11.7 (10.2)
same,"Sexual activity, Mean (SD) change",[1]; from baseline to week 36 (EOS),−5.3 (34.7)
same,"Global health/QoL, Mean (SD) change",[1]; from week 25 to week 36,0.7 (15.5)
same,"Hormonal treatment-related symptoms, Mean (SD) change",[1]; from week 25 to week 36,−1.2 (9.1)
same,"Sexual activity, Mean (SD) change",[1]; from week 25 to week 36,6.6 (22.8)
same,FSH level before administration,FSH; Baseline,11.716 IU/L
same,FSH level,"FSH; Week 2, Day 1",2.519 IU/L
same,mean FSH level,"FSH; Week 25, Day 1",1.471 IU/L
same,Median LH,LH; Baseline,4.8 mlU/mL
same,LH level,LH; Day 4,0.499 mIU/mL
same,Median LH,LH; Week 24,0.1 mlU/mL
same,mean LH level,"LH; Week 25, Day 1",0.342 IU/L
same,Median LH,LH; Week 28/EOT visit,0.2 mlU/mL
same,Median LH,LH; Week 32/follow-up,0.5 mlU/mL
same,Median LH,LH; Week 36/EOS,1.4 mlU/mL
same,Median PSA,PSA; Baseline,7.3 µg/L
same,Median PSA,PSA; Week 24,0.1 µg/L
same,Median PSA,PSA; Week 28/EOT visit,0.07 µg/L
same,Median PSA,PSA; Week 32/follow-up,0.07 µg/L
same,Median PSA,PSA; Week 36/EOS,0.07 µg/L
same,patients achieving PSA values less than 0.2 ng/ml,PSA; by the end of 12 weeks,1 of 20

# Source: patent US12629370B2, “Treatment of prostate cancer” (Sumitomo Pharma Co., Ltd., priority 2016, dated 2026)
